Measurements from patent US20130064955A1, “NATURAL SWEETENED COMPOSITIONS AND METHODS FOR PREPARING THE SAME” (priority 2011, published 2013).

Tests used:
[1] = test system: human sense of taste; assay: Determination of sweetness recognition threshold concentration by trained taste tester; type: in vivo; conditions: in water at room temperature
Description: The term “sweetness recognition threshold concentration,” as generally used herein, is the lowest known concentration of a sweet compound that is perceivable by the human sense of taste. The sweetness recognition threshold level is specific for a particular compound, and varies based on temperature, matrix, ingredients and/or flavor system. The sweetness recognition threshold concentrations measurements and 5% sucrose equivalence measurements described herein were determined in water at room temperature.
A sip (approximately 2-5 mL) of control sample, including but not limited to water, was tasted and swallowed by a trained taste tester. After allowing a 15-25 second interval to pass, a second sip of the control is tasted and swallowed. The taste properties of the control are determined and recorded by the trained taste tester. An unknown sample is then tasted and swallowed in the same manner, allowing a 15-25 second interval between the two sips. Preferably no more than ten additives are tested per day to avoid taste fatigue. Each sample was taken at least 1.5 hours following eating or drinking The sweetness recognition thresholds concentration of 21 steviol glycosides were determined in this manner, and are shown in Table 1.

[2] = test system: human sense of taste; assay: Sugar-like taste quality enhancement of Stevia sweeteners by steviol glycoside additives, taste test by trained individual; type: in vivo; conditions: additive at or below its sweetness recognition threshold concentration, 5% sucrose equivalence, water, room temperature; for Taste change of Stevia Sweetener REBA (303 ppm) with Steviol Glycoside Additive: 97% pure rebaudioside A 303 ppm; for Taste change of Stevia Sweetener REBD (303 ppm) with Steviol Glycoside Additive: rebaudioside D 303 ppm;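 as to Taste change of Stevia Sweetener JSS (380 ppm) with Steviol Glycoside Additive: code −B means less bitterness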
Description: A steviol glycoside is added in an amount at or below sweetness recognition threshold concentration to a solution of water and a Stevia sweetener. The solution is maintained at room temperature. Each sample is taste tested by a trained individual, as described in Example 1, in duplicate. Preferably no more than ten steviol glycosides are tested per day to avoid taste fatigue. Each sample was taken at least 1.5 hours following eating or drinking
The Stevia sweeteners used in this study were 97% pure rebaudioside A, JSS, and rebaudioside D.
The steviol glycosides were used in at or below sweetness recognition threshold concentrations. […]

Molecule	minimal effective concentration ([1]; Homo sapiens, read-out: Sweetness recognition threshold Level) [µg/mL]	Taste change of Stevia Sweetener REBA (303 ppm) with Steviol Glycoside Additive [2]	Taste change of Stevia Sweetener REBD (303 ppm) with Steviol Glycoside Additive [2]	Sweetness recognition threshold Level [1] [ppm]	Taste change of Stevia Sweetener JSS (380 ppm) with Steviol Glycoside Additive [2]
C=C1C[C@@]23CC[C@H]4[C@@](C)(CCC[C@@]4(C)C(=O)O[C@@H]4O[C@H](CO)[C@@H](O)[C@H](O)[C@H]4O)[C@@H]2CC[C@]1(O[C@@H]1O[C@H](CO)[C@@H](O)[C@H](O)[C@H]1O[C@@H]1O[C@H](CO)[C@@H](O)[C@H](O)[C@H]1O)C3 [Stevioside, stevioside]	25	N (N: no difference in presence or absence of steviol glycoside additive;)	N (N: no difference in presence or absence of steviol glycoside additive;)	–	–
rebaudioside B	–	N (N: no difference in presence or absence of steviol glycoside additive;)	N (N: no difference in presence or absence of steviol glycoside additive;)	25	N (N: no difference in presence or absence of steviol glycoside additive;)
rebaudioside C	–	N (N: no difference in presence or absence of steviol glycoside additive;)	N (N: no difference in presence or absence of steviol glycoside additive;)	100	N (N: no difference in presence or absence of steviol glycoside additive;)
rebaudioside F	–	N (N: no difference in presence or absence of steviol glycoside additive;)	N (N: no difference in presence or absence of steviol glycoside additive;)	25	N (N: no difference in presence or absence of steviol glycoside additive;)
